Test results reported in patent US4866083A, “2-t-butyl-3 alkyl-5-(m-hydroxyphenyl)-1,3-oxazolidines having mydriatic effect” (University of Iowa Research Foundation, priority 1987, dated 1989).

Columns and labels:
[1] = Distribution coefficient (log DC); format: physicochemical; settings: read-out: log DC (Dist. Coeff.)
rabbit eye = assay: Mydriatic experiments, pupil diameter in the rabbit eye; format: in vivo, New Zealand Rabbit
Experimental: The right eye of a normal adult New Zealand Rabbit (3-4 months) was used to measure mydriasis. A flood of diffuse light was placed at a fixed distance from the rabbit eye so that the initial pupil diameter prior to administering eye drops was about 3 mm. Changes in pupil diameter were measured from photographs taken with a 35 mm single lens reflex camera equipped with a close-up lens. Pupil diameters were measured at time 0 through about 5 hours. A dosing volume of 10 μl was administered to the right eye of a group of eight rabbits. A period of at least three days was allowed between instillations of each formulation.

[2] = Hydrolysis in buffered aqueous solution at 35° C.; format: physicochemical; settings: pH's between 1-7.5
Experimental: A series of experiments were conducted at 35° C. to determine the apparent first order hydrolysis rate constant for phenylephrine oxazolidine at […]. The progress of hydrolysis of the prodrug was followed by measuring the production of pivaldehyde subsequently trapped with thiosemicarbazide (pH<4) or semicarbazide (pH 4-7.5). The resulting formation of the carbazone derivative was followed using Uv spectroscopy at 235 and 265 nm (the spectroscopy was a 8450A UV/VIS Hewlett-Packard, Chicago, Ill.). The prodrug was dissolved in either pH 1, 2, 3, 4, 5, 6, 7 or 7.5 buffered aqueous solutions. The buffers used were hydrochloric acid, formate, acetate and phosphate solutions. The carbonyl trapping reagent was included in the buffer solutions at a concentration of 3.1×10(-3) M. The initial concentration of oxazolidine prodrug was about 1.8×10(-4) M. A volume of 3 ml was used for the reaction which was monitored directly in the absorbance cell. […] The concentration of carbazone was calculated by referring to a standard curve.

[3] = Stability in aqueous solutions; format: physicochemical
[4] = topical ocular; some individuals; cited from earlier work

| logD [1] | half-life [2] [min] | SMILES | potency relative to the aqueous solution of phenylephrine HCl (rabbit eye; based upon pupillary diameter, versus 10% viscous preparation of phenylephrine HCl, FIG. 2) | mydriasis compared with phenylephrine HCl (rabbit eye; molar equivalent concentration to 10% oil suspension of phenylephrine HCl, 10 μl to right eye, FIG. 1) | stability in aqueous solutions [3] | side effects [4] |
| --- | --- | --- | --- | --- | --- | --- |
| 1.383 ± 0.013 | 5 to 12 | CN1C[C@@H](c2cccc(O)c2)OC1C(C)(C)C (single isomer, unassigned) [phenylephrine oxazolidine, 2-t-butyl-3-methyl-5-(m-hydroxyphenyl)-1,3-oxazolidine] | approximately 10 times | significantly greater mydriasis | not particularly stable in aqueous solutions |  |
|  |  | CNC[C@H](O)c1cccc(O)c1 [phenylephrine, 3-hydroxy-α-[(methylamino)methyl]-benzyl alcohol] |  |  |  | hypertension, syncope, and even in some cases to myocardial infarction, leading to death |
